Laboratory results as given in patent EP0028063A1, “Phenol derivatives, processes for their preparation and pharmaceutical compositions containing them” (GLAXO GROUP LIMITED, priority 1979, dated 1981).

Key:
SRS-A = test: Antagonism of the action of SRS-A on guinea-pig isolated ileum (method of Coleman et al.; pA2 by Arunlakshana and Schild); format: cell-based; conditions: Cavia porcellus, SRS-A induced contraction, compounds tested at concentrations of 10^-6 M
Excerpt: The compounds according to the invention are potent antagonists of the action of slow reacting substance of anaphylaxis (SRS-A) as shown by their ability to inhibit the SRS-A induced contraction of guinea pig ileum (Coleman et al, Br. J. Pharmacol., 1979, 66, 83P). SRS-A is a naturally occurring substance which causes contraction of smooth muscle, especially bronchial muscle, and increases vascular permeability. The substance is not normally present in human tissue but is synthesised and released from certain cells during an allergic reaction. The compounds according to the invention are thus indicated for use in the treatment of disorders in which SRS-A may be a factor, for example, in obstructive airways diseases such as asthma, in hay fever and in skin afflictions.
The ability of the compounds to act as antagonists of the action of SRS-A was shown using guinea-pig isolated ileum according to the methods of Coleman et al, Br. J. Pharmacol., (1979), 66, 83P. Compounds were tested at concentrations of 10^-6 M and pA2 values were determined using the standard procedures of Arunlalkshana and Schild, Br. J. Pharmac.

dogs = test: Oral tolerability in dogs; format: in vivo; conditions: given orally to dogs at doses of up to 10 mg/kg
Excerpt: The compounds are in general non-toxic at therapeutically useful doses.

SMILES	Kb (SRS-A)	adverse effects (dogs)
CCCc1c(OCCCOc2ccc(OCC(=O)O)cc2)ccc(C(C)=O)c1O [Example 1g]	100 nM	–
CCCc1c(OCCCOc2cccc(C=CC(=O)O)c2)ccc(C(C)=O)c1O [Example 2a, 3-[3-[3-(4-Acetyl-3-hydroxy-2-propylphenoxy)propoxy]-phenyl]-2-propenoic acid]	39.8 nM	no adverse effects
CCCc1c(OCCCOc2ccc(C(=O)O)c(O)c2CCC)ccc(C(C)=O)c1O [Example 2c, 4-(3-(4-Aceltyl-3-hydroxy-2-propylphenoxy)propoxy] -2-hydroxy-3-propylbenzoic acid]	39.8 nM	–
CCCc1c(OCCCCCOc2cccc(C=CC(=O)O)c2)ccc(C(C)=O)c1O [Example 4b, 3-[3-[5-(4-Acetyl-3-hydroxy-2-propylphenoxy)pentyloxy]phenyl]-2-propenoic acid]	50.1 nM	–
CCCc1c(OCCCOc2cccc(CCC(=O)O)c2)ccc(C(C)=O)c1O [Example 5, 3-[3-(4-Acetyl-3-hydroxy-2-propylphenoxy)propoxy]bepzene propanoic acid]	50.1 nM	no adverse effects
CCCc1c(OCCCOc2ccc(C(=O)O)c(O)c2)ccc(C(C)=O)c1O [Example 8, 4-[3-(4-Acetyl-3-hydroxy-2-propylphcnoxy)propoxy]-2-hydroxybenzoic acid]	15.8 nM	no adverse effects
CCCc1c(OCCCOc2cc(C=CC(=O)O)ccc2[N+](=O)[O-])ccc(C(C)=O)c1O [Example 9b, 3-[3-[3-[4-Acetyl-3-hydroxy-2-propylphenoxy]propoxy]-4-nitrophenyl]-2-propenoic acid]	31.6 nM	–
CCCc1c(OCCCOc2cccc(-c3nn[nH]n3)c2)ccc(C(C)=O)c1O [Example 10b, 5-[3-[3-[4-Acetyl-3-hydroxy-2-propylphenoxy]propoxy]-phenyl]-lH-tetrazole]	79.4 nM	–
